Series [1] is described as follows: Determination of solubility of crystal form A of compound 1 in single or mixed solvents. To be noted: for solubility: organic solvent or mixture, thermodynamic from solid. The class given is physicochemical. How it is done:
Assay Example 1: Determination of Solubility of Crystal Form A of Compound 1
Multiple portions of about 2.0 mg of crystal form A of compound 1 were weighed in parallel and placed in glass vials. Various single solvents or mixed solvents listed in Table 2 were gradually added in small amount, and shaken constantly, while the dissolution of the compound was observed. The solubility of the compound was calculated based on the weight of the weighed compound and the volume of the correspondingly added solvent.

In the next series the test system is CT26 cells. As to the kind of experiment: Pharmacodynamics in vivo in CT-26 model (subcutaneous CT26 tumor in BALB/c nude mice). To be noted: anti-PD-1 5 mg/Kg QW; for Volume of tumor: crystal form A 50 mg/Kg BID oral. The text has this: Assay Example 4: Study of Pharmacodynamics of Crystal Form a of Compound 1 In Vivo in CT-26 Model
BALB/c nude mice (female, 7 weeks old, and weighing about 16 to 20 g) were kept in a breeding environment of SPF-class animal room, and in single ventilated cages (5 mice per cage). Bedding and water in all cages were disinfected before use. All the animals had free access to the standard certified commercial laboratory diet. A total of 80 mice were purchased from Shanghai Slack Laboratory Animal Co., Ltd. Anti-PD-1 antibody was purchased from BioXcell with the clone of RMP-14 and the product number of BP0146. 0.1 mL of 3×10^5 CT26 cells were subcutaneously inoculated in the right back of each mouse, and the mice were randomly divided into groups for administration.
CT26 cells were subcutaneously inoculated in the right back of each BALB/c nude mouse to test pharmacodynamics in vivo. In the assay, the test compound was administered orally every day for 22 consecutive days, and the anti-PD-1 antibody was administered once per week for three consecutive weeks. The volume of the tumor was measured twice a week with a two-dimensional caliper, and the volume was measured in cubic millimeter, which was calculated by the following formula: V=0.5 a×b^2, wherein a and b were the long and short diameters of the tumor, respectively. The anti-tumor efficacy was determined by dividing the average volume increase of the tumors of animals treated with the compound by the average volume increase of the tumors of the untreated animals. (BID means twice a day)

Series [2] addresses T1, human adenosine A2a receptor (Homo sapiens, UniProt P29274).
T1 construct: host or cells: CHO cells
As to the kind of experiment: Calcium flux assay of the human adenosine A2a receptor (FLIPR, CHO cells stably expressing A2a, agonist NECA). To be noted: conclusion on Table 3. It counts as cell-based. How it is done:
Calcium Flux Assay of the Human Adenosine A2a Receptor
The cell line stably expressing A2a was constructed by Shanghai WuXi AppTec, and the host cells were CHO cells.
Fluo-4 Direct kit (Invitrogen, Cat. No. F10471). The fluorescence detection reagent in the kit (which can specifically bind to calcium ions and cause an increase in the fluorescence signal) was incubated with the cells for an appropriate period of time, and the compounds were added to stimulate the cells to cause changes in the intracellular calcium flux, thereby causing changes in the fluorescence signal, which can reflect the strength of the agonistic or inhibitory activity of the compounds. […]
FLIPR instrument software was run. According to the set program, 10 μl of the compound dilution buffer was added to the cell plate, and the fluorescence signal was read. Then 10 μl of a predetermined concentration of the agonist as a reference compound was added to the cell plate, and the fluorescence signal was read. After the reading, data was exported through the “Max-Min” and “Read 90 to Maximum allowed” methods in the software. EC80 of the A2A cell line was calculated, and the agonist with a concentration of 6×EC80 was prepared. […]
FLIPR instrument software was run. […] Again, 10 μl of the agonist as a reference compound with a concentration of 6×EC80 was added to the cell plate, and the fluorescence signal was read. […]
On the technique in general: A change in cytosolic calcium serves as a functional read-out for many receptors and channels.

The nature of series [3]: Pharmacokinetics in female Balb/c mice after intravenous injection and oral administration. It counts as in vivo. How it is done: Object of the assay: to test the pharmacokinetics of the compound in female Balb/c mice in vivo
Balb/c mice (female, 15 to 30 g, 7 to 9 weeks old, from Shanghai Lingchang Biotechnology Company)
The pharmacokinetic profile of the compound after intravenous injection and oral administration in the rodents was tested by the standard protocol. In the assay, the candidate compound was prepared into a clear solution to be administered to the mice through a single intravenous injection and prepared into a homogeneous suspension to be administered to the mice through a single oral administration. The vehicle for the intravenous injection was 5% DMSO/95% 10% Cremophor EL, and the vehicle for the oral administration was 1% Tween 80, 9% PEG400, and 90% water. The whole blood sample was collected within 24 hours, and centrifuged at 3000 g at 4° C. for 15 minutes. The supernatant was separated to give the plasma sample, and 20 times volume of acetonitrile solution containing an internal standard was added to precipitate the proteins. […] The supernatant was taken out, and injected as a sample to quantitatively analyze the plasma drug concentration by LC-MS/MS analysis method. The pharmacokinetic parameters were calculated, such as peak concentration, peak time, clearance rate, half-life, area under the drug-time curve, bioavailability, etc.

SMILES strings stand for the structures. ≈ marks a conversion by molar mass, not a printed value. Entries after “also recorded” stand apart in the source; their conditions may differ.

T1 sequence (P29274 whole entry): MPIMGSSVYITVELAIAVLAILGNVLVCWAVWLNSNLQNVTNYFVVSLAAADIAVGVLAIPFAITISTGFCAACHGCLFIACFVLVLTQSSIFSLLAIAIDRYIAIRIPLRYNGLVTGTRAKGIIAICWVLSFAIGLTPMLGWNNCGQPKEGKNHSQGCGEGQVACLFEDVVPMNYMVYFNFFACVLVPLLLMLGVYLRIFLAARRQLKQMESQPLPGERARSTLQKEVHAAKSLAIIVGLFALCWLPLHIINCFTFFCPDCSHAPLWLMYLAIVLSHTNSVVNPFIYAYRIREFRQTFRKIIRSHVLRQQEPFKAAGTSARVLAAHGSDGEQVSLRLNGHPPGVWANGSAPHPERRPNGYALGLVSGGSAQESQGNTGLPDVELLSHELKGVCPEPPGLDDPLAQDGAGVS

By solubility is commonly meant the concentration that dissolves in the medium under given conditions. With `Cc1cc(-c2c(-c3ccccc3)nc(N)n3nc(CO)nc23)cc(C(F)(F)F)n1` [Crystal form A of compound 1, (5-amino-8-(2-methyl-6-(trifluoromethyl)pyridin-4-yl)-7-phenyl-[1,2,4]triazolo[1,5-c]pyrimidin-2-yl)methanol], in series [1] (conclusion on Table 2), the “Solubility in the solvents of Table 2 (in words)” value is “good solubility”. The solubility in series [1] (solvent 1,4-Dioxane) fell in the range of 35 to 52.5 mg/mL (≈ 87.4 to 131 mM); in series [1] (solvent Acetone), 33.3 to 50 mg/mL (≈ 83.2 to 125 mM); in series [1] (solvent Acetonitrile) it was 12.2 to 13.8 mg/mL (≈ 30.5 to 34.5 mM); in series [1] (solvent Acetonitrile:Water (2:1)), 26.3 to 35 mg/mL (≈ 65.7 to 87.4 mM); in series [1] (solvent Ethanol), 28.8 to 38.3 mg/mL (≈ 71.9 to 95.7 mM); in series [1] (solvent Ethanol:Water (3:1)), 25 to 50 mg/mL (≈ 62.4 to 125 mM). Also, the solubility is 12.5 to 16.7 mg/mL (≈ 31.2 to 41.7 mM) in series [1] (solvent Ethyl acetate); 14.4 to 16.4 mg/mL (≈ 36 to 41 mM) in series [1] (solvent Isopropanol); 47.5 to 95 mg/mL (≈ 119 to 237 mM) in series [1] (solvent Methanol); 36.7 to 55 mg/mL (≈ 91.7 to 137 mM) in series [1] (solvent Methyl ethyl ketone); 15.7 to 18.3 mg/mL (≈ 39.2 to 45.7 mM) in series [1] (solvent N-butanol); greater than 105 mg/mL in series [1] (solvent Tetrahydrofuran). The “Anti-tumor effect (in words)” value in the series with CT26 cells (CT-26 mouse model, crystal form A 50 mg/Kg BID) is “has an anti-tumor effect; also recorded: significant inhibitory effect on the tumor”. Also, the Volume of tumor stood at 47 mm^3 in the series with CT26 cells (Day 10); 127 mm^3 with CT26 cells (Day 13); 204 mm^3 in the series with CT26 cells (Day 15); 312 mm^3 with CT26 cells (Day 18); 409 mm^3 with CT26 cells (Day 20); 538 mm^3 in the series with CT26 cells (Day 22).
Take `Cc1cc(-c2c(-c3ccccc3)nc(N)n3nc(CO)nc23)cc(C(F)(F)F)n1` [Compound 1, (5-amino-8-(2-methyl-6-(trifluoromethyl)pyridin-4-yl)-7-phenyl-[1,2,4]triazolo[1,5-c]pyrimidin-2-yl)methanol]: the “Antagonistic activity against the adenosine A2a receptor (in words)” value in series [2] is reported as “excellent antagonistic activity”. In series [3] (conclusion on Table 4), the “Pharmacokinetic index in mice (in words)” value was “excellent pharmacokinetic index”. The clearance in series [3] (mouse, plasma, female Balb/c mice, single intravenous injection, read-out: Clearance rate) is 18 mL/min/kg.
